Test results as given in patent publication US20250120943A1, “RIFAMYCIN OPHTHALMIC COMPOSITION AND USE THEREOF” (AMD THERAPEUTICS LLC, priority 2022, published 2025).
Marks after values point to notes of the source that are not given here.

Legend:
[1] = Rabbit, 0.5%, 50 μL, 250 μg; Sigurdsson et al. 2007; cited from earlier work
[2] = Mouse pharmacokinetics after SC injection, sclera+sub-retina complex (LC/MS)
Procedure: This effective dosage and administration route was evaluated in dose escalation studies by using the mouse laser-induced CNV model. […] In 1 hr, 3 hr, 6 hr, and 18 hr after the SC injection, eyeballs were extracted. Tissue from the retina and tissue from the sclera+sub-retina complex were isolated and extracted. These tissues were immediately frozen in liquid nitrogen. The tissue was subjected to LC/MS analysis for quantitation. The detection limit was 0.25 ng/g tissue.

[3] = system: Neovascularization in retina of oxygen-induced retinopathy rat models; test: Oxygen-induced retinopathy rat model, capillaries counted in histology sections; assay type: in vivo, Sprague-Dawley rat; settings: vehicle only 16.3
[4] = Retina exposure level of rifampicin after topical eye drops (LC/MS); assay type: in vivo, Sprague-Dawley rats; settings: rat, topical eye drops 0.25% rifampicin (Ex. 1A), average of n = 3
Procedure: The remaining two rats received the same application, but 10 drops of the eye drops, in each eye under isoflurane sedation. A single drop contained 5 μL of the above-described formulation, and application of each drug drop was carried out with intervals of 30 minutes. After the eye drop application, the retina was excised from each rat under a dissection microscope. In addition, “non-treated” negative controls were used, and the retina was excised from two rats without performing any treatments on the rats. The retina was placed in a 1.5-ml microcentrifuge tube (1 retina/tube), and was fully washed with DPBS. After completion of the washing procedures, the retinal tissues in the microcentrifuge tube were frozen in dry ice, and were then preserved for quantification by LC/MS analysis.
At time points of 1 hour, 3 hours, and 7 hours after the application of the eye drops, the retinal tissues were excised from the rats under a dissection microscope. In addition, “non-treated” negative controls were used, and the retina was excised from one rat without performing any treatments on the rats. The retina was placed in a 1.5-ml microcentrifuge tube (1 retina/tube), and was fully washed with DPBS. After completion of the washing procedures, the retinal tissues in the microcentrifuge tube were frozen in dry ice, and were then preserved for quantification by LC/MS analysis. […]

[5] = system: CNV induced in sub-retina tissues; test: Mouse laser-induced CNV model, CNV area by FITC-dextran fluorescence; assay type: in vivo, C57BL/6J mice; settings: for Average CNV area (%): n = 10, day 7, vehicle = 100
Procedure: Eyes of C57BL/6J mice were laser irradiated, and CNV were induced in sub-retina tissues in the eyes. […] In 7 days after the laser irradiation, a FITC-dextran solution was administered to the tail vein. The eyeballs were removed under euthanasia, and the removed eyeballs were fixed with 4% paraformaldehyde phosphate buffer. The cornea, iris and lens were excised, and retinal tissues other than retinal pigment epithelium cells were stripped using a microspacer. The optic cups were divided into 4 to 6 sections using a corneal microscissor, and they were placed on a slide glass. […] The CNV areas were quantified using ImageJ (TABLES 11-1 and 11-2; Image software publicly available by NIH).

Compound | Drug amount detected in retina [1] | Ave. rifampicin delivered to sclera + sub-retina complex ([2]; SC 0.7 mg/kg, 18 hr, detection limit 0.25 ng/g tissue) | Share of rifampicin in sub-retina+sclera complex delivered to the sub-retina ([2]; SC injection) | Average numbers of capillaries in high power field per eye ([3]; 0.25% rifampicin topical eye drop (Ex. 1A), three times daily P15-P19, n = 3, P value = 0.0058) | Average numbers of capillaries in high power field per eye ([3]; 0.5% rifampicin SC injection (Ex. 6A), 20 mg/kg once a day P15-P19, n = 3, P value = 0.0102) | Rifampicin extracted from retina ([4]; 3 drops of 5 μL at 30 min intervals) | Rifampicin extracted from retina ([4]; 10 drops of 5 μL at 30 min intervals) | Dosage that significantly inhibited neovascularization (effective dosage) ([5]; SC injection, mouse laser-induced CNV model) [mg/kg] | Average CNV area (%) ([5]; SC once daily 0.2 mg/kg, P >0.05 (TABLE 11-1)) | Average CNV area (%) ([5]; SC once daily 0.7 mg/kg, P 0.003 (TABLE 11-2)) | Average CNV area (%) ([5]; SC once daily 0.7 mg/kg, P 0.045 (TABLE 11-1)) | Average CNV area (%) ([5]; SC once daily 2 mg/kg, P 0.011 (TABLE 11-2))
C[C@@H]1C[C@H]2[C@@H]3CCC4=CC(=O)C=C[C@]4(C)[C@@]3(F)[C@@H](O)C[C@]2(C)[C@@]1(O)C(=O)CO [Dexamethasone] | About 33 ng/1 g ng/1 g of retinal tissues | – | – | – | – | – | – | – | – | – | – | –
CO[C@H]1/C=C/O[C@@]2(C)Oc3c(C)c(O)c4c(O)c(c(/C=N/N5CCN(C)CC5)c(O)c4c3C2=O)NC(=O)/C(C)=C\C=C\[C@H](C)[C@H](O)[C@@H](C)[C@@H](O)[C@@H](C)[C@H](OC(C)=O)[C@@H]1C [Rifampicin, rifampicin] | – | BDL | approximately 70% | 7.78 | 9.28 | 1,288* ng/1 g of tissues | 2,939* ng/1 g of tissues | 0.7 | 90.17 | 74.78 | 81.00 | 78.33
